The values below come from ChEMBL document CHEMBL1933042, “Discovery of potent and selective matrix metalloprotease 12 inhibitors for the potential treatment of chronic obstructive pulmonary disease (COPD)” (Bioorg Med Chem Lett, 2012).

≈ marks a conversion by molar mass, not a printed value. Some results are limits rather than exact numbers.

The species entered for series [1] is Homo sapiens. As to the kind of experiment: Selectivity ratio of IC50 for human MMP-8 to IC50 for human MMP-12.
For series [2], the species on record is Homo sapiens. As to the kind of experiment: Selectivity ratio of IC50 for human MMP-13 to IC50 for human MMP-12.
Series [3] in a line: Clearance in C57BL/6 mouse at 2 mg/kg, iv. The class given is ADME, organism-based. More on the design: dose 2 mg/kg, route intravenous. Particulars: in vivo; call rule not given here.
Series [4] addresses Voltage-gated inwardly rectifying potassium channel KCNH2 (Homo sapiens, UniProt Q12809). Description: Inhibition of human ERG.
Series [5] in a line: Aqueous solubility of the compound at pH 7.4. Particulars: buffer. The class given is physicochemical.
In the next series the test system is Salmonella typhimurium. Description: Mutagenicity in Salmonella Typhimurium by AMES test. The format is toxicity, organism-based. Particulars: salmonella enterica subsp. enterica serovar typhimurium.
The subject of series [6] is Mus musculus. Description: Inhibition of human recombinant MMP12-induced lung inflammation in C57BL/6 mouse assessed as reduction in bronchoalveolar lavage inflammation at 5 mg/kg, po bid at 2 hrs prior to and 12 hrs post challenge measured 24 hrs after last challenge relative to vehicle treated control. The format is functional. Particulars: C57BL/6, Lung.
The nature of series [7]: Inhibition of sheep MMP-12. More on the design: species or system Ovis aries.
The nature of series [8]: Half life in C57BL/6 mouse at 10 mg/kg, po. The format is ADME, organism-based. More on the design: dose 10 mg/kg, route oral. The settings on record: in vivo.
The target of series [9] is Matrix metalloproteinase-12 (Canis lupus familiaris, UniProt A9X4R8). As to the kind of experiment: Inhibition of dog MMP-12.
The test system of series [10] is Mus musculus. As to the kind of experiment: Inhibition of human recombinant MMP12-mediated ear swelling in C57BL/6 mouse at 3 mg/kg, po bid administered 12 hrs and 2 hrs prior to challenge measured after 2 hrs relative to vehicle treated control. The format is functional.
In series [11] the test system is Mus musculus. As to the kind of experiment: Inhibition of human recombinant MMP12-induced lung inflammation in po dosed C57BL/6 mouse assessed as minimum effective dose for reduction in Bronchoalveolar Lavage inflammation administered bid at 2 hrs prior to and 12 hrs post challenge measured 24 hrs after last challenge. The format is functional. The settings on record: C57BL/6, po, read-out: MED.

The nature of series [12]: Oral bioavailability in C57BL/6 mouse at 10 mg/kg. Particulars: in vivo. The format is ADME, organism-based.
For a further series, the target named is Neutrophil collagenase (Homo sapiens, UniProt P22894). As to the kind of experiment: Inhibition of human MMP-8.
Series [13] concerns Mus musculus. As to the kind of experiment: Inhibition of human recombinant MMP12-induced lung inflammation in C57BL/6 mouse assessed as reduction in bronchoalveolar lavage inflammation at 10 mg/kg, po bid administered at 2 hrs prior to and 12 hrs post challenge measured 24 hrs after last challenge relative to vehicle treated control. The format is functional. Particulars: C57BL/6, Lung.

The next series has as its target Stromelysin-1 (Homo sapiens, UniProt P08254). As to the kind of experiment: Inhibition of human MMP-3.
The next series concerns the target Collagenase 3 (Homo sapiens, UniProt P45452). Description: Inhibition of human MMP-13.
Series [14] concerns Mus musculus. Description: Inhibition of human recombinant MMP12-mediated ear swelling in C57BL/6 mouse at 30 mg/kg, po bid administered 12 hrs and 2 hrs prior to challenge measured after 2 hrs relative to vehicle treated control. The class given is functional.
A short description of series [15]: Volume of distribution at steady state in C57BL/6 mouse at 2 mg/kg, iv. The format is ADME, organism-based. The arrangement: dose 2 mg/kg, route intravenous. The settings on record: in vivo, read-out: Vdss.
The nature of series [16]: Cmax in C57BL/6 mouse at 10 mg/kg, po. The settings on record: in vivo. The class given is ADME, organism-based. More on the design: dose 10 mg/kg, route oral.
For a further series, the target named is T1, Matrilysin (Homo sapiens, UniProt P09237).
T1 sequence (P09237 whole entry): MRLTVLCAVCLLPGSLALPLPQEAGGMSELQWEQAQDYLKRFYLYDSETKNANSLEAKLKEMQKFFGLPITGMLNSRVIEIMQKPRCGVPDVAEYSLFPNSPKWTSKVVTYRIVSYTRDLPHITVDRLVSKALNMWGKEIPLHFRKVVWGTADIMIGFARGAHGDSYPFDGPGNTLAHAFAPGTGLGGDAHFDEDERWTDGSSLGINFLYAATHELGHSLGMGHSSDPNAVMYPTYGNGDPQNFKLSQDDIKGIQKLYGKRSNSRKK
Description: Inhibition of human MMP-7.

Series [17] deals with Mus musculus. As to the kind of experiment: Inhibition of human recombinant MMP12-mediated ear swelling in C57BL/6 mouse at 10 mg/kg, po bid administered 12 hrs and 2 hrs prior to challenge measured after 2 hrs relative to vehicle treated control. The class given is functional.
The target of series [18] is Matrix metalloproteinase-9 (Homo sapiens, UniProt P14780). Description: Inhibition of human MMP-9.
Series [19] concerns the target Macrophage metalloelastase (Mus musculus, UniProt P34960). As to the kind of experiment: Inhibition of mouse MMP-12.
The nature of series [20]: AUC in C57BL/6 mouse at 10 mg/kg, po. The class given is ADME, organism-based. The arrangement: dose 10 mg/kg, route oral. Particulars: plasma.
In series [21] the target is 72 kDa type IV collagenase (Homo sapiens, UniProt P08253). As to the kind of experiment: Inhibition of human MMP-2.
In series [22] the target is Macrophage metalloelastase (Oryctolagus cuniculus, UniProt P79227). Description: Inhibition of rabbit MMP-12.
A short description of series [23]: Inhibition of monkey MMP-12. More on the design: species or system Macaca mulatta.
Series [24] has as its target Macrophage metalloelastase (Homo sapiens, UniProt P39900). Description: Inhibition of human MMP-12.

Chain of Stromelysin-1 (P08254 whole entry): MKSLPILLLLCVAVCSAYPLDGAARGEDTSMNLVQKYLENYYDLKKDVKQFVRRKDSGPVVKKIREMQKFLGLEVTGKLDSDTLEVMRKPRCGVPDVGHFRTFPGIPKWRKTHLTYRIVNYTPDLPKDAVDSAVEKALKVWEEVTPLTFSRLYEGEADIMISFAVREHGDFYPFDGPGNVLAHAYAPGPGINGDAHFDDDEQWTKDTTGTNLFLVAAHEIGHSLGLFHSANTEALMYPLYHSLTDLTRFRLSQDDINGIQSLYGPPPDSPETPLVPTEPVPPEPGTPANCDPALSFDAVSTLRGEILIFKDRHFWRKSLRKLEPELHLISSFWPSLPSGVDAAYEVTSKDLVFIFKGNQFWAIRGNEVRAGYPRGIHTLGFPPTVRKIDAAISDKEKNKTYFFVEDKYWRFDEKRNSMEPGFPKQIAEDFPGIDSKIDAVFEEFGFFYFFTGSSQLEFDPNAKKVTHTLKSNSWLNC
Chain of Matrix metalloproteinase-9 (P14780 whole entry): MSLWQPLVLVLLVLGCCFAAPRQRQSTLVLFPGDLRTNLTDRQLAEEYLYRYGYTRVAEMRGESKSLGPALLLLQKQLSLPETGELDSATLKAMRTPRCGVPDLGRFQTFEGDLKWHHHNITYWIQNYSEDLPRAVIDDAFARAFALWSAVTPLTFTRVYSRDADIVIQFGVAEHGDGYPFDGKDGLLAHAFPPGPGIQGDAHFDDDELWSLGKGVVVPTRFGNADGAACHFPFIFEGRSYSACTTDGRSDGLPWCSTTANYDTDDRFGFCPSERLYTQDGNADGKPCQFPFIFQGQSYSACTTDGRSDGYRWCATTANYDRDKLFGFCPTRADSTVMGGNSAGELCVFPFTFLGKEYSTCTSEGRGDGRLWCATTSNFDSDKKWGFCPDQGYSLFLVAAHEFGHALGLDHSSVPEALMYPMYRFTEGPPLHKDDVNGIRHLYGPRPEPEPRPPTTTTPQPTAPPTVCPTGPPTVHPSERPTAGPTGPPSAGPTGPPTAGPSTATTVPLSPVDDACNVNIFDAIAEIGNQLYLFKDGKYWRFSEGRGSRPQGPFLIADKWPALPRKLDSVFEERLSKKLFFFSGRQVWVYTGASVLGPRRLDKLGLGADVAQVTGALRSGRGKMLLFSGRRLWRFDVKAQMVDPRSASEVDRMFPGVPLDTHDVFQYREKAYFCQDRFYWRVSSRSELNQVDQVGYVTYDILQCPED
Chain of 72 kDa type IV collagenase (P08253 whole entry): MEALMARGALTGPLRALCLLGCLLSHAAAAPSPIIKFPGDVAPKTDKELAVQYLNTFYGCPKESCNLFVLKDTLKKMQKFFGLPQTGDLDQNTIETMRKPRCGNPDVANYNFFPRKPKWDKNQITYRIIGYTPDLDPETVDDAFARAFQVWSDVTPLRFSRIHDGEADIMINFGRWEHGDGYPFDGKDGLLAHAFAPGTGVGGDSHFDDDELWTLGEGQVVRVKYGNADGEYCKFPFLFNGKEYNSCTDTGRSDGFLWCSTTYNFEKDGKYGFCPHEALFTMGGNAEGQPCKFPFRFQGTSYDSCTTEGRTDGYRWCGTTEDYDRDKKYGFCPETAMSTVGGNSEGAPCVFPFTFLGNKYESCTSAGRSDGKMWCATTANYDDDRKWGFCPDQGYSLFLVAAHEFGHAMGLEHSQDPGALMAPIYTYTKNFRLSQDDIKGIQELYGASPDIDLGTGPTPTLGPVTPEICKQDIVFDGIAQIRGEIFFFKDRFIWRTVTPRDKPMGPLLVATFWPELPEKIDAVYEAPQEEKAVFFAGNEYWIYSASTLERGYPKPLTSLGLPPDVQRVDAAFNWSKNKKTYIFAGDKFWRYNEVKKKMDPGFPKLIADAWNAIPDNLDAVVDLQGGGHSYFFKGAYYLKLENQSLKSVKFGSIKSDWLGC
Chain of Macrophage metalloelastase (Oryctolagus cuniculus, UniProt P79227) (P79227 whole entry): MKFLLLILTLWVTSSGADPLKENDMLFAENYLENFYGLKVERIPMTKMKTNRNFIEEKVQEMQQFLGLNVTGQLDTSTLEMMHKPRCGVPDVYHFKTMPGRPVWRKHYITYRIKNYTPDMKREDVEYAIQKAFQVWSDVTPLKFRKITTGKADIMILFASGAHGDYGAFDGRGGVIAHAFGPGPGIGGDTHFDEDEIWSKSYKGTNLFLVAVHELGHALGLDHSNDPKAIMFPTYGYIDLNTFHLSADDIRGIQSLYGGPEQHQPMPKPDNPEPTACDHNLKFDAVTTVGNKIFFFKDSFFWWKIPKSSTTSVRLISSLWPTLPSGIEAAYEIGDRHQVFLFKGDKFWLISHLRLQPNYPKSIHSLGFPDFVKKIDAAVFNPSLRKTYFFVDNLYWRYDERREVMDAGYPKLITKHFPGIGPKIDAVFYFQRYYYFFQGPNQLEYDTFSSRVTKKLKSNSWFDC
Chain of Neutrophil collagenase (P22894 whole entry): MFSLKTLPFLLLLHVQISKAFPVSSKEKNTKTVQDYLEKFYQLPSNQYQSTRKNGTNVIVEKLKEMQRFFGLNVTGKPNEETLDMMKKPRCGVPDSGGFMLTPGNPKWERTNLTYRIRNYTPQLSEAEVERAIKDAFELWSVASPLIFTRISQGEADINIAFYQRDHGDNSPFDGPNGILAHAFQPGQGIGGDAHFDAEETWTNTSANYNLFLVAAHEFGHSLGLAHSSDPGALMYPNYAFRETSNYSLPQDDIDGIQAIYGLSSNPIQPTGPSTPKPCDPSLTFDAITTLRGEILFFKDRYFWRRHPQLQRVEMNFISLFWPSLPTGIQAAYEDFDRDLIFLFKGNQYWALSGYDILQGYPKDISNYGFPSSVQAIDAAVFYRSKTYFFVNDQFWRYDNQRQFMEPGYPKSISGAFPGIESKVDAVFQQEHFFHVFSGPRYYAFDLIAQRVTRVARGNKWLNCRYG
Chain of Macrophage metalloelastase (Homo sapiens, UniProt P39900) (P39900 whole entry): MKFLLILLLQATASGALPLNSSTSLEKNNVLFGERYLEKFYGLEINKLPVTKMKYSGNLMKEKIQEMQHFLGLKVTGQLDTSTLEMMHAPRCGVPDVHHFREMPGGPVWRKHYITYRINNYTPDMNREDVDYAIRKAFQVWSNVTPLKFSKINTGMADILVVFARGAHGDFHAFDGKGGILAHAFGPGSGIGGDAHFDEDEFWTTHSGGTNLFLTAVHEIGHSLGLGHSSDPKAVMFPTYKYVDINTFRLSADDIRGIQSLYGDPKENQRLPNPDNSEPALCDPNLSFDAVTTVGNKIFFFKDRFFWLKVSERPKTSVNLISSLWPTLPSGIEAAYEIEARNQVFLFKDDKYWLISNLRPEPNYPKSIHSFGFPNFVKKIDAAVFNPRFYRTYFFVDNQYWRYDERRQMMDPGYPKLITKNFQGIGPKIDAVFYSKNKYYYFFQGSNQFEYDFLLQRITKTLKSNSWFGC
Chain of Macrophage metalloelastase (Mus musculus, UniProt P34960) (P34960 whole entry): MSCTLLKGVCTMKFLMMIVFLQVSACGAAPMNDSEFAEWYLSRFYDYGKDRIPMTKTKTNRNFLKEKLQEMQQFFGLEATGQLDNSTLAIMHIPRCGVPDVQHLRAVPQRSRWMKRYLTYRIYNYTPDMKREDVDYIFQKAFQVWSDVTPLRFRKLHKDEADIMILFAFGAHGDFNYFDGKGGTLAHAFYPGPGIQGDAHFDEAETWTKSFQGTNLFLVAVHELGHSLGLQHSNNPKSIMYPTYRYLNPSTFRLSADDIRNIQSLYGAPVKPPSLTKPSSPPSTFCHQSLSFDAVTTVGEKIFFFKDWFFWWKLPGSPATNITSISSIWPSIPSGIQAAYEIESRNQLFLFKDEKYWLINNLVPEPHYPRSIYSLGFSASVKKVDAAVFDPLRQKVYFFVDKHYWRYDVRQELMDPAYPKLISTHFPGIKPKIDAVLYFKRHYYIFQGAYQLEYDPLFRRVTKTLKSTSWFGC
Chain of Voltage-gated inwardly rectifying potassium channel KCNH2 (Q12809 whole entry): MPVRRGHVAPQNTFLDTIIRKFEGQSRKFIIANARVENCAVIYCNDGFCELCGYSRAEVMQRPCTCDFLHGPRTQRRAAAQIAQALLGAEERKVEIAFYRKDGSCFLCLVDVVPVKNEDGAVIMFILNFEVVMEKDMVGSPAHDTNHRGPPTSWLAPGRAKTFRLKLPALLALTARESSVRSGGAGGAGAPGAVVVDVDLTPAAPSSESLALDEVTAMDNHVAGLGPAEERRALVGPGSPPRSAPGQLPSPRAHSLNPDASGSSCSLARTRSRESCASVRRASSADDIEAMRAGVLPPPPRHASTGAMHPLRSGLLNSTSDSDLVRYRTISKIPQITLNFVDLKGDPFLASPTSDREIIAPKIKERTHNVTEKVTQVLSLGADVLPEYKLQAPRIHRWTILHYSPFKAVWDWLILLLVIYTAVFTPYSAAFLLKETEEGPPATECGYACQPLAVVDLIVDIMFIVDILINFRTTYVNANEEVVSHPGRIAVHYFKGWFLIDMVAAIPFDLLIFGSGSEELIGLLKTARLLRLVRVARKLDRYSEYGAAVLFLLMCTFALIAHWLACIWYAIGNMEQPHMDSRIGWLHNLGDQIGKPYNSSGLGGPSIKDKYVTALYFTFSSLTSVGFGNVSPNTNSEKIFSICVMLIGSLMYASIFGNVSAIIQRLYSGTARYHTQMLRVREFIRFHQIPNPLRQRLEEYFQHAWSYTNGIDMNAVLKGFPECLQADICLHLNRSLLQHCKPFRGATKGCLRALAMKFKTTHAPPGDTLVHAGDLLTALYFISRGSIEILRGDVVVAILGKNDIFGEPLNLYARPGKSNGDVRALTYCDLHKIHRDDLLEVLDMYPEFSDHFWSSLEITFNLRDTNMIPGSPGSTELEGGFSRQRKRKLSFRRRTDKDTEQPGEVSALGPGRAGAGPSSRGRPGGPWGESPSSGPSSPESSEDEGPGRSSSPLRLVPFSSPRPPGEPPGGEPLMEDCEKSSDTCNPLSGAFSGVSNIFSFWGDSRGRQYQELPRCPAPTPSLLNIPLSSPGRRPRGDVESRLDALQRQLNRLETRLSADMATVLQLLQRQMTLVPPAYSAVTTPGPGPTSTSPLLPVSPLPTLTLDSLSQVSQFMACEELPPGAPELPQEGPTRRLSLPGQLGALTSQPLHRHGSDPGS
Chain of Matrix metalloproteinase-12 (A9X4R8 whole entry): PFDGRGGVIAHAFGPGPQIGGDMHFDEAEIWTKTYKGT

Turning to `CC(C)[C@H](NS(=O)(=O)c1ccc2c(c1)oc1ccc(-c3noc(C4CCOC4)n3)cc12)C(=O)O` (some centres undefined), the Ratio IC50 in the series listed under Homo sapiens [1] worked out at 100.

For the compound `Cc1cnc(-c2ccc3oc4cc(S(=O)(=O)N[C@H](C(=O)O)C(C)C)ccc4c3c2)s1`, the Ratio IC50 worked out at 158 in the series filed under Homo sapiens [1] and 460 in the series filed under Homo sapiens [2].

`CC(C)[C@H](NS(=O)(=O)c1ccc2c(c1)oc1ccc(-c3noc(C4CCC4)n3)cc12)C(=O)O`: in the series filed under Homo sapiens [1], the Ratio IC50 amounted to 44.

For the compound `CC(C)[C@H](NS(=O)(=O)c1ccc2c(c1)oc1ccc(-n3ccc(C(F)(F)F)n3)cc12)C(=O)O`, the Ratio IC50 in the series filed under Homo sapiens [1] came out at 44; in the series filed under Homo sapiens [2] it was 349.

Turning to `COCc1nc(-c2ccc3oc4cc(S(=O)(=O)N[C@H](C(=O)O)C(C)C)ccc4c3c2)no1`, the Ratio IC50 in the series listed under Homo sapiens [1] is 10.

For `CC(C)[C@H](NS(=O)(=O)c1ccc2c(c1)oc1ccc(-c3noc(C(F)(F)F)n3)cc12)C(=O)O`, the Ratio IC50 in the series filed under Homo sapiens [1] came out at 45.

As to `CC(C)[C@H](NS(=O)(=O)c1ccc2c(c1)oc1ccc(-n3cncn3)cc12)C(=O)O`, the Ratio IC50 in the series listed under Homo sapiens [1] was found to be 4; in the series filed under Homo sapiens [2], 34.

On to `Cc1ccc(-c2ccc3oc4cc(S(=O)(=O)N[C@H](C(=O)O)C(C)C)ccc4c3c2)s1`, for which the Ratio IC50 in the series listed under Homo sapiens [1] worked out at 125; in the series filed under Homo sapiens [2], 1200.

With `CC(C)[C@H](NS(=O)(=O)c1ccc2c(c1)oc1ccc(-c3ccoc3)cc12)C(=O)O`, the Ratio IC50 was determined as 33 in the series listed under Homo sapiens [1] and 900 in the series filed under Homo sapiens [2].

In series [3], `CC(C)[C@H](NS(=O)(=O)c1ccc2c(c1)oc1ccc(-c3nccs3)cc12)C(=O)O` came in with a clearance of 5 mL/min/kg. Besides, the “inhibition (INH)” value in [4] was “Not Active”. Moreover, the concentration in solution in [5] (solubility) was 550 µg/mL (≈ 1280 µM). Moreover, in the series on Salmonella typhimurium, the Activity result is on record as “Non-toxic”. Further, the inhibition in vivo at 5 mg/kg in the series on Mus musculus [6] is over 50%. The IC50 in [7] was determined as 5.4 nM; in [9], 70 nM; against Neutrophil collagenase it was 154 nM; at Stromelysin-1 it was 2530 nM; on Collagenase 3, 1980 nM; on Matrilysin it was 57700 nM. The concentration for half-maximal inhibition (IC50) was found to be 1970 nM in [18]; 85 nM in [19]; 501 nM in series [21]; 57 nM in series [22]; 244 nM in series [23]. The same compound showed a half-life in series [8] of 2.9 h. Further, the inhibition in vivo at 3 mg/kg with Mus musculus [10] stood at 24.9%. For the same compound, the figures for the Ratio IC50 in the series listed under Homo sapiens [1] and in the series filed under Homo sapiens [2] were 154 and 1980, respectively. For the same compound, the minimal effective dose in the series with Mus musculus [11] is 5 mg/kg. This compound displayed a bioavailability in [12] of 63%. The inhibition in vivo at 10 mg/kg in the series on Mus musculus [13] was over 50%; in the series on Mus musculus [17] it was 38.6%. In the series with Mus musculus [14], the inhibition in vivo at 30 mg/kg amounted to 65.2%. Further, the Vd in [15] was 0.8 L/kg. In series [16], this compound had a peak concentration (Cmax) of 5550 ng/mL. In series [20], this compound displayed an AUC of 20300 ng·h/mL.

As for `COC(=O)Nc1ccc2oc3cc(S(=O)(=O)N[C@H](C(=O)O)C(C)C)ccc3c2c1`, the Ratio IC50 in the series filed under Homo sapiens [2] came to 60.

As for `CC(C)c1nc(-c2ccc3oc4cc(S(=O)(=O)N[C@H](C(=O)O)C(C)C)ccc4c3c2)no1`, the Ratio IC50 in the series listed under Homo sapiens [1] was 19.

With `CC(C)[C@H](NS(=O)(=O)c1ccc2c(c1)oc1ccc(-c3cc[nH]n3)cc12)C(=O)O`, in series [24], the concentration for half-maximal inhibition (IC50) is under 1 nM. Further, the Ratio IC50 in the series filed under Homo sapiens [1] was over 2500; in the series listed under Homo sapiens [2], over 1130.

Consider `CC(C)[C@H](NS(=O)(=O)c1ccc2c(c1)oc1ccc(N3CCOCC3)cc12)C(=O)O`, for which the Ratio IC50 in the series filed under Homo sapiens [1] was 3; in the series listed under Homo sapiens [2] it was 154.

Consider `CCc1nc(-c2ccc3oc4cc(S(=O)(=O)N[C@H](C(=O)O)C(C)C)ccc4c3c2)no1`, for which the Ratio IC50 in the series filed under Homo sapiens [1] came out at 1.4.

`CC(C)[C@H](NS(=O)(=O)c1ccc2c(c1)oc1ccc(-n3cccn3)cc12)C(=O)O`: the Ratio IC50 was found to be 15 in the series listed under Homo sapiens [1] and 37 in the series filed under Homo sapiens [2].

Consider `CC(C)[C@H](NS(=O)(=O)c1ccc2c(c1)oc1ccc(-c3ccc[nH]3)cc12)C(=O)O`, for which the values for the Ratio IC50 in the series filed under Homo sapiens [1] and in the series filed under Homo sapiens [2] were 143 and 525, respectively.

On to `CC(C)[C@H](NS(=O)(=O)c1ccc2c(c1)oc1ccc(-c3noc(C4CC4)n3)cc12)C(=O)O`, for which the Ratio IC50 in the series filed under Homo sapiens [1] was 56.

As for `CC(C)[C@H](NS(=O)(=O)c1ccc2c(c1)oc1ccc(-c3noc(-c4ccccc4)n3)cc12)C(=O)O`, in the series filed under Homo sapiens [1], the Ratio IC50 came out at 60.

As for `CC(C)[C@H](NS(=O)(=O)c1ccc2c(c1)oc1ccc(N3CCN(C)CC3)cc12)C(=O)O`, the figures for the Ratio IC50 in the series filed under Homo sapiens [1] and in the series listed under Homo sapiens [2] were 0.5 and 38, respectively.

With `CC(C)[C@H](NS(=O)(=O)c1ccc2c(c1)oc1ccc(N3CCNCC3)cc12)C(=O)O`, the Ratio IC50 in the series listed under Homo sapiens [1] was found to be 2; in the series filed under Homo sapiens [2] it was 34.

For `CC(C)[C@H](NS(=O)(=O)c1ccc2c(c1)oc1ccc(-c3ccc(Cl)o3)cc12)C(=O)O`, the Ratio IC50 in the series filed under Homo sapiens [1] came to 70; in the series filed under Homo sapiens [2] it was 1440.

`CC(C)[C@H](NS(=O)(=O)c1ccc2c(c1)oc1ccc(-c3cccs3)cc12)C(=O)O`: the Ratio IC50 in the series listed under Homo sapiens [1] came to 100; in the series listed under Homo sapiens [2], 1690.

In general, clearance refers to the rate of elimination divided by the concentration. The solubility is how much of the substance goes into solution per volume. What is called inhibition in vivo is how much of the control response was suppressed. A word on the IC50: it is the concentration that gives 50% inhibition. The half-life is the time in which the quantity being followed falls by half. A word on the bioavailability: it is dose-corrected exposure relative to a reference, in per cent. A word on the Cmax: it is the peak of the concentration-time curve. As usually defined, the AUC is concentration integrated over time.
